# Biological target: T1, papain (Carica papaya, UniProt P00784)
# T1 construct: purchased Sigma Chem. Co
# T1 sequence (P00784 134-345): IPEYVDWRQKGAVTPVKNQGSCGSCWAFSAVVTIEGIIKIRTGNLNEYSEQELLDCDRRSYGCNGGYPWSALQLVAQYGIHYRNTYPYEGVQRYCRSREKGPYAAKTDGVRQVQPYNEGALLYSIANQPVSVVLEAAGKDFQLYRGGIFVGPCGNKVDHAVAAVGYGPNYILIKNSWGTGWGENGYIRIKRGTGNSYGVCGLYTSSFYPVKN
# Test: Papain inhibitory activity (milk casein digestion)
# Format: biochemical
# Settings: papain 80 μg/ml 0.5 ml, cysteine, pH 6.8, 1% milk casein, 40° C., 10 minutes
# Procedure: Papain inhibitory activity of the compounds of this invention was assayed as follows: To 0.5 ml of a solution of papain (80 μg/ml, Sigma Chem. Co., 2x cry.), were added 0.25 ml of 40 mM cysteine dissolved in 20 mM disodium ethylenediamine tetraacetic acid solution adjusted pH to 6.8 with sodium hydroxide and 0.25 ml of 33 mM phosphate buffer (pH 6.8) with or without inhibitor. After incubation at 40° C. for 15 minutes, the resulting mixture was added to 5 ml of 1% milk casein solution in the same buffer as described above, and further incubated at 40° C. for 10 minutes. Then the mixture was mixed with 5 ml of 0.44 M trichloroacetic acid solution and followed by filtration with a sheet of Toyo filter paper No. 4. The extinction of the filtrate was read at 280 nm. The percent inhibition was calculated from the formula, 100 x (B-A)/B; wherein B stands for the absorbance without inhibitor and A for the absorbance with inhibitor. The compound Nos. in Table 1 are as defined in Examples as described hereinafter.
row,Structure (SMILES),ID50 (amount of inhibitor for 50% inhibition)
1,"CCOC(=O)C1OC1C(=O)N[C@@H](CCCCNC(=O)OC(C)(C)C)C(=O)OCc1ccccc1 (stereo partly drawn) [EP-170, N^α -(3-ethoxycarbonyloxirane-2-carbonyl)-N^ε -t-butyloxycarbonyl-L-lysine benzyl ester]",27.50 γ
2,"Cc1ccccc1COC(=O)[C@@H]1O[C@H]1C(=O)OCc1ccccc1C (relative stereo) [EP-91, di-o-methylbenzyl epoxysuccinate]",0.35 γ
3,"O=C(O)[C@@H]1O[C@H]1C(=O)OCCCC1CCCC1 (relative stereo) [EP-64, 3-cyclopentanepropyl potassium epoxysuccinate]",0.10 γ
4,"O=C(O)C1OC1C(=O)OC1CC2CCC1C2 (stereo not shown) [EP-56, norbornyl potassium epoxysuccinate]",0.06 γ
5,"O=C(OCc1ccc(I)cc1Br)[C@H]1O[C@@H]1C(=O)OCc1ccc(I)cc1Br (relative stereo) [EP-119, di-2'-bromo-4'-iodobenzyl epoxysuccinate]",3.00 γ
6,"O=C(O)[C@H]1O[C@@H]1C(=O)OCC=Cc1ccccc1 (relative stereo) [EP-134, 3'-phenyl-2'-propenyl potassium epoxysuccinate]",0.71 γ
7,"O=C(O)[C@H]1O[C@@H]1C(=O)OCc1ccc(I)cc1 (relative stereo) [EP-112, p-iodobenzyl potassium epoxysuccinate]",0.32 γ
8,"CCOC(=O)[C@H](CCCCNC(=O)OCc1ccccc1)NC(=O)C1OC1C(=O)[O-].[K+] (stereo partly drawn) [EP-195, N^α -(3-carboxyoxirane-2-carbonyl)-N^ε -carbobenzoxy-L-lysine ethyl ester potassium salt]",0.43 γ
9,"O=C(OC1CC1)[C@@H]1O[C@H]1C(=O)OC1CC1 (relative stereo) [EP-27, dicyclopropyl epoxysuccinate]",20.00 γ
10,"O=C(OC1CCC(Br)C(Cl)C1)C1OC1C(=O)OC1CCC(Br)C(Cl)C1 (stereo not drawn) [EP-21, di-3'-cis-chloro-trans-4'-bromocyclohexyl epoxysuccinate]",2.46 γ
11,"O=C(OC1CC2CCC1CC2)[C@@H]1O[C@H]1C(=O)OC1CC2CCC1CC2 (relative stereo) [EP-51, dibicyclo [2,2,2] octyl epoxysuccinate]",0.30 γ
12,"CCOC(=O)CNC(=O)[C@@H]1O[C@H]1C(=O)OCc1ccc2c(Br)cccc2c1 (relative stereo) [EP-220, N-[3-(5'-bromo-2-naphthylmethoxy)-carbonyloxirane-2-carbonyl]-glycine ethyl ester]",9.86 γ
13,"O=C(O)[C@@H]1O[C@H]1C(=O)OCC12CC3CC(CC(C3)C1)C2 (relative stereo) [EP-48, 1-adamantanemethyl potassium epoxysuccinate]",0.08 γ
14,"O=C(O)[C@H]1O[C@@H]1C(=O)OCc1cc(Cl)ccc1Cl (relative stereo) [EP-128, 2',5'-dichlorobenzyl potassium epoxysuccinate]",0.11 γ
15,"O=C(O)[C@@H]1O[C@H]1C(=O)O[C@@H]1CCCC[C@H]1Cl (relative stereo) [EP-8, 2'-trans-chlorocyclohexyl potassium epoxysuccinate]",0.07 γ
16,"O=C(OCCCC1CCCCC1)[C@@H]1O[C@H]1C(=O)OCCCC1CCCCC1 (relative stereo) [EP-65, di-3-cyclohexanepropyl epoxysuccinate]",69.44 γ
17,"O=C(OCCC12CC3CC(CC(C3)C1)C2)[C@@H]1O[C@H]1C(=O)OCCC12CC3CC(CC(C3)C1)C2 (relative stereo) [EP-49, di-2-(1-adamantane)ethyl epoxysuccinate]",0.85 γ
18,"O=C(OCC1CC=CCC1)C1OC1C(=O)OCC1CC=CCC1 (stereo not shown) [EP-69, di-3-cyclohexenemethyl epoxysuccinate]",0.23 γ
19,"CCOC(=O)C1OC1C(=O)N[C@@H](CC(N)=O)C(=O)OCc1ccccc1 (stereo partly drawn) [EP-194, N-(3-ethoxycarbonyloxirane-2-carbonyl)-L-asparagine benzyl ester]",22.60 γ

row,Structure (SMILES),ID50 (amount of inhibitor for 50% inhibition)
1,"O=C(NCCCC[C@H](NC(=O)C1OC1C(=O)OCCCc1ccccc1)C(=O)OCc1ccccc1)OCc1ccccc1 (stereo partly drawn) [EP-188, N^α -[3-(3'-phenylpropyloxy)-carbonyloxirane-2-carbonyl]-N^ε -carbobenzoxy-L-lysine benzyl ester]",1.86 γ
2,"COC(=O)[C@H](C)NC(=O)C1OC1C(=O)O[C@H]1CC[C@H](C)CC1 (stereo partly drawn) [EP-215, N-[3-(4'-trans-methylcyclohexyloxy)-carbonyloxirane-2-carbonyl]-L-alanine methyl ester]",3.55 γ
3,"CCOC(=O)[C@H]1O[C@@H]1C(=O)NCCC(=O)OCc1ccccc1 (relative stereo) [EP-157, N-(3-ethoxycarbonyloxirane-2-carbonyl)-β-alanine benzyl ester]",71.50 γ
4,"O=C(O)[C@@H]1O[C@H]1C(=O)OCCC12CC3CC(CC(C3)C1)C2 (relative stereo) [EP-50, 2-(1-adamantane)ethyl potassium epoxysuccinate]",0.09 γ
5,"CCOC(=O)[C@@H](NC(=O)C1OC1C(=O)OC)[C@@H](C)O (stereo partly drawn) [EP-190, N-(3-methoxycarbonyloxirane-2-carbonyl)-L-threonine ethyl ester]",17.13 γ
6,"Cc1ccc(COC(=O)[C@@H]2O[C@H]2C(=O)O)cc1 (relative stereo) [EP-90, p-methylbenzyl potassium epoxysuccinate]",0.25 γ
7,"CC1(C)C2CCC1(C)C(OC(=O)C1OC1C(=O)OC1CC3CCC1(C)C3(C)C)C2 (stereo not shown) [EP-53, dibornyl epoxysuccinate]",0.45 γ
8,"CCCCOC(=O)[C@H](CC(C)C)NC(=O)C1OC1C(=O)OCc1ccco1 (stereo partly drawn) [EP-217, N-[3-furfuryloxycarbonyloxirane-2-carbonyl]-L-leucine n-butyl ester]",0.25 γ
9,"Cc1ccc(COC(=O)C2OC2C(=O)N[C@@H](CCCCNC(=O)OCc2ccccc2)C(=O)OCc2ccccc2)cc1 (stereo partly drawn) [EP-181, N^α -(3-p-methylbenzyloxycarbonyloxirane-2-carbonyl)-N^ε -carbobenzoxy-L-lysine benzyl ester]",6.59 γ
10,"CCOC(=O)[C@H](Cc1ccccc1)NC(=O)C1OC1C(=O)OCc1ccccc1 (stereo partly drawn) [EP-159, N-(3-benzyloxycarbonyloxirane-2-carbonyl)-L-phenylalanine ethyl ester]",0.27 γ
11,"CCOC(=O)C1OC1C(=O)N[C@@H](Cc1c[nH]cn1)C(=O)OC (stereo partly drawn) [EP-185, N^α -(3-ethoxycarbonyloxirane-2-carbonyl)-L-histidine methyl ester]",14.05 γ
12,"O=C(O)[C@H]1O[C@@H]1C(=O)OCc1ccc(Cl)cc1Cl (relative stereo) [EP-118, 2',4'-dichlorobenzyl potassium epoxysuccinate]",0.11 γ
13,"O=C(O)[C@@H]1O[C@H]1C(=O)OCC1CCCC1 (relative stereo) [EP-44, cyclopentanemethyl potassium epoxysuccinate]",0.07 γ
14,"O=C(OCC1CCC=CCCC1)[C@@H]1O[C@H]1C(=O)OCC1CCC=CCCC1 (relative stereo) [EP-73, di-4-cyclooctenemethyl epoxysuccinate]",0.10 γ
15,"O=C(O)[C@@H]1O[C@H]1C(=O)OCc1cccs1 (relative stereo) [EP-80, 2'-thenyl potassium epoxysuccinate]",0.32 γ
16,"Cc1cccc(COC(=O)[C@@H]2O[C@H]2C(=O)OCc2cccc(C)c2Br)c1Br (relative stereo) [EP-97, di-2'-bromo-3'-methylbenzyl epoxysuccinate]",3.20 γ
17,"O=C(O)C1OC1C(=O)OC1CC2C=CC1C2 (stereo not shown) [EP-58, norbor-5-en-2-yl potassium epoxysuccinate]",0.07 γ
18,"O=C(NCCCC[C@H](NC(=O)C1OC1C(=O)OC1CC1)C(=O)OCc1ccccc1)OCc1ccccc1 (stereo partly drawn) [EP-204, N^α -(3-cyclopropyloxycarbonyloxirane-2-carbonyl)-N^ε-carbobenzoxy-L-lysine benzyl ester]",15.20 γ

# From patent US4393228A, “Epoxysuccinic acid derivatives” (Taisho Pharmaceutical Co., Ltd., priority 1977, dated 1983)
